# In US20260248820A1, “USES OF HYDROGENATED CANNABIDIOL (H4CBD) AND ADVANCED METABOLIC SYNDROME” (The Regents of the University of California, priority 2022, published 2026):
# “Also recorded” adds a separate entry of the source.
# Assays:
# [1] = Drug bioavailability detection in heparinized plasma (HPLC, MS/MS); assay type: in vivo, rat; conditions: peak area count <1500 considered negative, 200 mg/kg oral gavage
# Experimental: Drug Bioavailability Detection—H4CBD bioavailability in heparinized plasma was determined via HPLC and MS/MS. In brief, 100 μL heparinized rat plasma was diluted with 100 μL Mass Spec Gold human serum (Golden West Diagnostics, MSG3200). The samples were analyzed using a WATERS TQS-Micro. The first quadrupole was set to 319.16 m/z and the third quadrupole isolated fragments of 181.02 m/z.
# Drug Bioavailability Detection—H4CBD bioavailability in heparinized plasma was determined via HPLC and MS chromatography.
# [2] = tested on: Otsuka Long-Evans Tokushima Fatty (OLETF) rat; experiment: End of study fasting blood/plasma measurements (glucose, hormones, lipids, RAAS peptides); assay type: in vivo; design: Plasma AngII higher than OLETF control / Plasma Ang 1-7 higher than OLETF control / Plasma aldosterone higher than OLETF control / Reduction of fasting insulin to glucagon ratio compared to OLETF / Reduction of circulating adiponectin compared to OLETF / Reduction of leptin compared to OLETF: concentration or dose not given beside the values
# Text: Tissue Collection—After the 4-week study and 3 days following the OGTT, animals were fasted overnight and tissues were collected the following morning.
# Statistics—All values are represented as mean #standard error mean (SEM) unless otherwise indicated. Means were compared by one-way ANOVA followed by Tukey's honest significant difference or unpaired, one-tailed t-test to assess significant differences among groups. Means and regressions were considered significant at p<0.05. Outliers were detected by ROUT (Q=1.0%) and removed; however, it should be noted that this was necessary for only 12 occurrences. All statistical procedures, including Pearson r correlations, were performed using GraphPad Prism 9.3.1 (GraphPad Software, Inc., San Diego, CA, USA).
# Tissue Collection—After the 4-week study period, animals were fasted overnight, and tissues were collected at sacrifice the following morning. BM was recorded before animals were decapitated and trunk blood was collected.
# Plasma Analysis—Plasma concentrations of adiponectin (Millipore Sigma; EZRADP-62K), aldosterone (R&D Systems; KGE016), angiotensin 1-7 (Phoenix Pharmaceuticals; EKE-002-01), angiotensin II (Phoenix Pharmaceuticals; EK-002-12CE), corticosterone (R&D Systems; KGE009), ghrelin (Sigma Aldrich; RAB0207), glucagon (Crystal Chemicals; 81519), leptin (Millipore Sigma; EZRL-83K), non-esterified fatty acid (NEFA) (Wako Chemicals) and triglycerides (Cayman Chemical; 10010303) were measured in fasted, end of study plasma samples. All samples were analyzed in duplicate and run in a single assay with intra-assay and percent CV of <10% for all assays.
# Mas1 mRNA = experiment: Real-time qPCR on cardiac tissue, Mas1; assay type: in vivo, rat; conditions: 74% lower in OLETF control than LETO
# Text: (§1) Real-Time qPCR—Gene expression was quantified by qPCR on cardiac tissue. Primers used were acquired from Integrated DNA Technologies and listed here 5′-3′: angiotensin MAS1 receptor (Mas1) Fw: […] (SEQ ID NO:1), Rv: […] (SEQ ID NO:2).
# [3] = tested on: Otsuka Long-Evans Tokushima Fatty (OLETF) rat; experiment: Oral Glucose Tolerance Test (OGTT); assay type: in vivo
# Experimental: Male lean Long Evan's Tokushima Otsuka (LETO) rats and obese Otsuka Long Evans Tokushima Fatty (OLETF) rats (Japan SLC Inc., Hamamatsu, Japan), both 14 weeks of age were assigned to the following groups (n=8/group): (1) vehicle-dosed LETO (LETO), (2) vehicle-dosed OLETF (OLETF), and (3) H4CBD-treated (200 mg/kg/day×4 weeks) OLETF (H4CBD). Rats were maintained in a specific pathogen-free, climate-controlled facility on a 12-hour light: dark cycle (07:00-19:00 and 19:00-07:00, respectively). All animals had free access to water and were fed rat chow (Teklad Global; fat 9.0%; carbohydrate 44.9%; protein 19.0%) ad libitum. Treatment intervention was initiated at 41 weeks of age. Phenotypic data (i.e. body mass, food intake) was collected daily for all animals.
# Purified H4CBD (>99%) was suspended in food grade sesame oil and administered by oral gavage at a dose of 200 mg/kg.
# Oral Glucose Tolerance Test (OGTT)—At approximately 45 weeks of age and following an overnight fast, oGTTs were performed as previously described. The positive incremental areas under the curve for glucose (AUCglucose) and insulin (AUCinsulin) were calculated by the trapezoidal method. Insulin resistance index (IRI) was calculated by AUCglucosex AUCinsulin/100, as previously described.
# AT1 mRNA = experiment: Real-time qPCR on cardiac tissue, AT1; assay type: in vivo, rat
# Text: as §1
# [4] = tested on: Otsuka Long-Evans Tokushima Fatty (OLETF) rat; experiment: Observation of treated animals during dosing window; assay type: in vivo; conditions: all treated animals, regardless of dose frequency relaxation
# [5] = H4CBD-treated OLETF rats, end of study fasting, mean ± SEM
# [6] = H4CBD-treated OLETF rats, end of study, mean ± SEM
compound,measurement,setting,value
"CCCCCc1cc(O)c(C2CC(C)CCC2C(C)C)c(O)c1 (stereo not drawn) [H4CBD, 2-(2-isopropyl-5-methylcyclohexyl)-5-pentylbenzene-1,3-diol]",H4CBD in end of study plasma,[1],only treated animals received drug; also recorded: only detected in plasma from treated rats
same,Fasting blood glucose higher than LETO,"[2]; 45 weeks of age, p<0.0001",2.2 fold
same,Fasting blood glucose higher than OLETF,"[2]; 45 weeks of age, p<0.01",56%
same,Glucose:Insulin (mmol/μIU × 10^4),[2]; [5],10.9 ± 1.1^ mmol/μIU × 10^4
same,Insulin:Glucagon (μIU/pg),[2]; [5],0.6 ± 0.0^ μIU/pg
same,Fasting glucagon,[2]; [6],19.4 ± 9.4 pg/mL
same,Fasting insulin (μIU/mL),[2]; [6],13.9 ± 0.4^# μIU/mL
same,Fasting blood glucose (mmol/L),"[2]; H4CBD-treated OLETF rats, end of study, mean ± SEM, n = 8",15.8 ± 1.9^†£ mmol/L
same,Fasted plasma NEFA,"[2]; LETO, OLETF, H4CBD",not different among groups
same,Increase of fasting plasma insulin over OLETF,[2]; end of study,10%
same,"Plasma glucagon, OLETF versus H4CBD",[2]; end of study fasting,not different
same,Plasma Ang 1-7 higher than OLETF control,[2]; end of study plasma,26%
same,Plasma AngII higher than OLETF control,[2]; end of study plasma,24%
same,Plasma aldosterone higher than OLETF control,"[2]; end of study plasma, p=0.052",150%
same,Plasma corticosterone,"[2]; fasting plasma, LETO, OLETF, H4CBD",comparable amongst the groups
same,Plasma ghrelin greater than the other groups,"[2]; fasting plasma, p<0.01 vs OLETF, p<0.05 vs LETO",75%
same,Reduction of circulating adiponectin compared to OLETF,"[2]; fasting plasma, p<0.05",40%
same,Reduction of leptin compared to OLETF,"[2]; fasting plasma, p<0.05",47%
same,Leptin:adiponectin ratio,"[2]; fasting plasma, ratio 30% lower in OLETF than LETO",did not modulate the ratio further
same,Fasted plasma TG,"[2]; p<0.0001 OLETF vs. H4CBD, TG 147% higher in OLETF than LETO",reduced fasted plasma TG to LETO control levels
same,Increase of fasting glucose to insulin ratio compared to OLETF,[2]; p<0.05,47%
same,Reduction of fasting insulin to glucagon ratio compared to OLETF,[2]; p<0.05,64%
same,Mas1 mRNA expression,Mas1 mRNA,not rescued
same,Glucose response curve to OGTT,"[3]; % baseline, p<0.01 OLETF vs. H4CBD",lowest
same,Reduction of insulin resistance index (IRI),"[3]; IRI = AUCglucose x AUCinsulin/100, p<0.05 OLETF vs. H4CBD",23%
same,Time of blood glucose peak after glucose bolus,"[3]; OGTT at about 45 weeks, overnight fast, treated and non-treated OLETF",60 min
same,Reduction of overall AUCglucose from OLETF,"[3]; OGTT, p<0.001",29%
same,Plasma insulin response to OGTT,[3]; response abolished in OLETF,not rescued
same,AT1 mRNA expression higher than control OLETF,AT1 mRNA,49%
same,Stool observation,[4],soft stool at multiple points of the dosing window
